Results on one compound are retold here after US20130123358A1, “Metabolic Benefits to Butyrate as a Chronic Diet Supplement” (priority 2009, published 2013).

The test system of data set [1] is skeletal muscle (vastus laterais, gastrocnemius, soleus). In words: Skeletal muscle fiber type and immunoblot. The data set is classed as in vivo, mouse. The conditions noted are these: butyrate 5% w/w in HFD 13 weeks. An excerpt: Fresh fat and muscles were collected and frozen in liquid nitrogen. The whole cell lysate protein was extract in lysis buffer with sonication and analyzed in western blot as described elsewhere (16). Antibodies were used in study of myoglobin (sc-25607, Santa Cruz), PGC-1 (sc-13068, Santa Cruz), Tubulin (ab7291, Abcam), myosin (M8421, Sigma), pAMPK (Thr 172, #2531, Cell signaling) and p-p38 (sc-7975, Santa Cruz). To detect multiple signals from one membrane, the membrane was stripped with a stripping buffer. Intensity of the immunoblot signal was quantified using a computer program, ImageJ 1.37v (NIH). The mean values of results from three experiments (6 mice each group) were presented. The antibodies to PGC-1α and UCP-1 were from Dr. Thomas Gettys at Pennington Biomedical Research Center, Baton Rouge, La.
The fiber types in skeletal muscle were examined using two methods: succinate dehydrogenase (SDH) staining for […] and immunostaining of type I myosin heavy chain. In the SDH staining, mid-belly cross-sections of muscle were cut at 8 μm in a cryostat (−20° C.). After drying for 5 min at room temperature, the sections were incubated at 37° C. for 60 min in the incubation solution containing 6.5 mmol/l sodium phosphate monobasic, 43.5 mmol/l sodium phosphate biphasic, 0.6 mmol/l nitroblue tetrazolium (74032, Sigma), and 50 mmol/l sodium succinate (14160, Sigma). The sections were rinsed three times (30 sec/time) in 0.9% saline, 5 min in 15% ethanol and then mounted with aqueous mounting medium (Dakocyrtoma).
Fresh skeletal muscle was collected, embedded in gum tragacanth mixed with OCT freezing matrix, and quickly frozen in isopentane cooled in liquid nitrogen. The tissue slides were obtained through serial cross-section cutting at 8 um thickness and processed with a standard procedure. The slides was blotted with a monoclonal antibody against the type I myosin heavy chain (M8421, Sigma) at 1:200 dilution. After being washed, the slide was incubated with a biotinylated secondary antibody (BA-2000). For PGC-1 staining, paraffin sections (8 μm) of BAT or inguinal fat on slides were deparaffinized and blotted with primary antibody of PGC-1 (sc-13067, Santa Cruz) at 1:200, the sections were washed and incubated with a biotinylated secondary antibody (rabbit IgG) in ABC kit. The slides were then incubated with the ABC elite reagent (PK-6101) and color reaction was performed using the DAB substrate kit (SK-4100) for myosin I and AEC substrate kit (AEC101, Sigma) for PGC-1a according to instructions by the manufacturers.
To look for oxidative fiber in skeletal muscle, the vastus laterais muscle was isolated from mice that were fed on HFD for 13 weeks. […] A fiber type analysis was conducted in the vastus laterais, gastrocnemius (rich in glycolytic fibers) and soleus (rich in oxidative fiber). Serial cryostat sections of muscle were made from vastus lateralis, gastrocnemius (gastr.) and soleus muscle. The slides were stained with antibody against Type I myosin heavy chain for oxidative fibers. The ratio of type I fibers were increased in all of the skeletal muscle of butyrate-treated mice (data not shown). Succinate dehydrogenase staining of oxidative fibers was done on serial cryostat sections of the vastus lateralis and gastrocnemius (gastr.) muscle.
To quantify the amount of protein of type 1 myosin heavy chain and PGC-1α, whole cell lysates were prepared from muscle tissues and analyzed in an immunoblot. Signals for PGC-1α, type I myosin heavy chain (Myosin), myoglobin, phospho-AMPK and phospho-p38 (p-p38) were blotted with specific antibodies. Relative signal strength was quantified for each band and expressed in FIG. 5B. The results are the mean±SE (n=8 mice). *P<0.01, ** P<0.001 (vs. control). […] A mean value of each protein was presented in the bar figure in FIG. 5B.
AMPK and p38 activities were examined by their phosphorylation status. […]
On the technique in general: In western blotting, separated proteins are transferred to a membrane and probed.

The test system of a further data set is ruminant mammals. Conditions: intravenous use, including in the form of tributyrin; cited from earlier work.
Data set [2] is described as follows: Butyrate concentration in plasma. The data set is classed as in vivo. The conditions noted are these: mouse, oral, 5 % w/w in HFD, butyrate 5% w/w in HFD for 16 weeks. The protocol:
(§1) The serum fatty acids including butyrate were examined using a protocol described elsewhere (18), and as described below in Example 10. The fatty acids in feces were determined using a protocol as described by Schwarz (19). Triglyceride and cholesterol were measured in the whole blood with the Cardiochek portable test system.
The butyrate concentration was analyzed in plasma collected from the butyrate and control groups in mice fed HFD for 16 weeks. In a fasted condition (overnight fast), the butyrate concentration was 7.23±0.93 μg/ml in the butyrate group and 5.71±0.38 μg/ml in the control. […] Data are presented as means±SE (n=6). * P<0.05; ** P<0.001.

The test system of data set [3] is C57BL/6J mice on high fat diet. Description: Blood lipids and TNF-a in HFD mice. The data set is classed as in vivo, mouse. The protocol:
as §1
Levels of cholesterol, total triglyceride and inflammation cytokines (TNF-a) were elevated in the blood of dietary obese mice. With 5% SB supplementation, these risk factors for cardiovascular disease were all reduced in the mice (FIG. 10A-E). Blood samples were taken from control and butyrate-supplemented mice at 10 weeks on HFD. The cholesterol, HDL (high density lipoprotein), LDL (low density lipoprotein), and triglyceride were measured with cholesterol reagent kit (cat #. 80015, Rainchem, San Diego, Calif.), and the Cardiochek whole blood test system (Polymer Technology Systems, Inc. IN). Data are presented as means±SEM (n=6). **P<0.001 by Student's t test.

Where two headings read alike, the source gives them in different places.

As to `CCCC(=O)[O-].[Na+]` [sodium butyrate], in data set [1] (immunoblot), the “AMPK phosphorylation in muscle lysate” value is “increase in their phosphorylation”, the “PGC-1α protein in muscle” value is “significant increase”, the “myoglobin protein in muscle” value is recorded as “also increased” and the “p38 phosphorylation in muscle lysate” value is “increase in their phosphorylation”. For the same compound, the “type 1 myosin heavy chain protein in muscle” value in data set [1] (immunoblot) is “significant increase”. Further, in data set [1] (vastus lateralis and gastrocnemius), the “Type I fibers (succinate dehydrogenase staining)” value is recorded as “increase in Type I fibers”. The “ratio of type I fibers (Type I myosin heavy chain immunostaining)” value in data set [1] (vastus lateralis, gastrocnemius, soleus) is “increased”. In addition, the “serum glucose and insulin” value in the data set on ruminant mammals was “increase”. Besides, the concentration at 16 weeks in data set [2] (fed, read-out: butyrate concentration in plasma, fed condition) was determined as 9400 ± 1360 ng/mL. Besides, the concentration at 16 weeks in data set [2] (overnight fast, read-out: butyrate concentration in plasma, fasted condition) stood at 7230 ± 930 ng/mL. Moreover, in data set [3] (5% SB in HFD, 10 weeks, blood), the “LDL, reduction vs control” value is reported as 41%; the “Triglyceride, reduction vs control” value is 40%; the “total cholesterol, reduction vs control” value came to 25%. Besides, in data set [3] (5% SB in HFD, 10 weeks, blood, Luminex), the “TNF-a, reduction vs control” value came to 70%. Besides, the “blood total fatty acids” value in data set [3] (butyrate 5% w/w in HFD) is “decreased”.
